{"source": "patent US7563805B2", "about": "“Tri-, tetra-substituted-3-aminopyrrolidine derivative” (Daiichi Pharmaceutical Co., Ltd., priority 2005, dated 2009)", "key": {"[1]": {"conditions": "female, cynomolgus monkey, in vivo"}, "in vivo [2]": {"assay": "in vivo", "conditions": "male, Crj:CD IGS, rat, po, 5 mg/kg"}, "[3]": {"test_system": "Mycobacterium tuberculosis (quinolone sensitive)", "assay": "anti-Mycobacterium tuberculosis (quinolone sensitive) activity, MIC", "assay_type": "cell-based"}, "S. epidermidis, 56500": {"test_system": "S. epidermidis, 56500", "assay": "antibacterial activity (MIC), standard method of Japanese Society of Chemotherapy", "conditions": "Staphylococcus epidermidis, 56500, S. epidermidis"}, "E. faecalis, ATCC 19433": {"test_system": "E. faecalis, ATCC 19433", "assay": "antibacterial activity (MIC), standard method of Japanese Society of Chemotherapy", "conditions": "E. faecalis"}, "P. vulgaris, 08601": {"test_system": "P. vulgaris, 08601", "assay": "antibacterial activity (MIC), standard method of Japanese Society of Chemotherapy", "conditions": "Proteus vulgaris, 08601, P. vulgaris"}, "in vivo [4]": {"assay": "in vivo", "conditions": "female, cynomolgus monkey, po, 5 mg/kg"}, "P. aeruginosa, 32104": {"test_system": "P. aeruginosa, 32104", "assay": "antibacterial activity (MIC), standard method of Japanese Society of Chemotherapy", "conditions": "Pseudomonas aeruginosa"}}}
{"smiles": "COc1c(N2CC(C)(N)C3(CC3)C2)c(F)cc2c(=O)c(C(=O)O)cn([C@@H]3C[C@@H]3F)c12", "note": "(stereo partly drawn) [Example 9, 7-(7-Amino-7-methyl-5-azaspiro[2.4]heptan-5-yl)-6-fluoro-1-[(1R,2S)-2-fluorocyclopropyl]-8-methoxy-1,4-dihydro-4-oxoquinoline-3-carboxylic acid]", "values": [{"measurement": "blood penetration, times higher than Comparative compound 1", "setting": "[1]", "value": "about 2.5 times"}, {"measurement": "urine excretion rate, times higher than Comparative compound 1", "setting": "[1]", "value": "more than 2 times"}, {"measurement": "Recovery (%) in urine in relation to the amount administered, Recovery (%) including conjugate", "setting": "[1]; 5 mg/kg", "value": 59.5, "unit": "%"}, {"measurement": "AUC(0-t)", "setting": "in vivo [2]", "value": 3.08, "unit": "µg·h/mL"}, {"measurement": "Cmax", "setting": "in vivo [2]", "value": 1.22, "unit": "µg/mL"}, {"measurement": "MIC", "setting": "[3]; strain 1 (QR-3)", "value": 0.125, "unit": "mg/L"}, {"measurement": "MIC", "setting": "[3]; strain 2 (QR-6)", "value": 0.5, "unit": "mg/L"}, {"measurement": "MIC", "setting": "[3]; strain 3 (QR-1)", "value": 0.25, "unit": "mg/L"}, {"measurement": "MIC", "setting": "[3]; strain 4 (QR-9)", "value": 0.25, "unit": "mg/L"}, {"measurement": "MIC", "setting": "[3]; strain MDR 1", "value": 0.125, "unit": "mg/L"}, {"measurement": "MIC", "setting": "[3]; strain MDR 3", "value": 0.125, "unit": "mg/L"}, {"measurement": "MIC", "setting": "[3]; strain MDR 4", "value": 0.25, "unit": "mg/L"}, {"measurement": "MIC", "setting": "[3]; strain MDR 5", "value": 0.5, "unit": "mg/L"}, {"measurement": "MIC", "setting": "[3]; strain MDR 7", "value": 0.125, "unit": "mg/L"}, {"measurement": "MIC", "setting": "[3]; strain MDR 9", "value": 0.125, "unit": "mg/L"}, {"measurement": "MIC", "setting": "[3]; strain MDR 12", "value": 0.125, "unit": "mg/L"}, {"measurement": "MIC", "setting": "[3]; strain S 1", "value": 1, "unit": "mg/L"}, {"measurement": "MIC", "setting": "S. epidermidis, 56500", "value": 0.1, "unit": "mg/L"}, {"measurement": "MIC", "setting": "E. faecalis, ATCC 19433", "value": 0.2, "unit": "mg/L"}, {"measurement": "MIC", "setting": "P. vulgaris, 08601", "value": 0.025, "unit": "mg/L"}, {"measurement": "AUC(0-t)", "setting": "in vivo [4]", "value": 16.9, "unit": "µg·h/mL"}, {"measurement": "Cmax", "setting": "in vivo [4]", "value": 2.18, "unit": "µg/mL"}, {"measurement": "half-life", "setting": "in vivo [4]", "value": 4.8, "unit": "h"}, {"measurement": "MIC", "setting": "P. aeruginosa, 32104", "value": 0.39, "unit": "mg/L"}]}
